Each structure is given as a SMILES string.

Holding throughout (conditions): Compound concentration 10 µM
Assay [1] addresses T1, Muscarinic acetylcholine receptor M1 (Homo sapiens) (UniProt P11229).
T1 sequence (whole entry): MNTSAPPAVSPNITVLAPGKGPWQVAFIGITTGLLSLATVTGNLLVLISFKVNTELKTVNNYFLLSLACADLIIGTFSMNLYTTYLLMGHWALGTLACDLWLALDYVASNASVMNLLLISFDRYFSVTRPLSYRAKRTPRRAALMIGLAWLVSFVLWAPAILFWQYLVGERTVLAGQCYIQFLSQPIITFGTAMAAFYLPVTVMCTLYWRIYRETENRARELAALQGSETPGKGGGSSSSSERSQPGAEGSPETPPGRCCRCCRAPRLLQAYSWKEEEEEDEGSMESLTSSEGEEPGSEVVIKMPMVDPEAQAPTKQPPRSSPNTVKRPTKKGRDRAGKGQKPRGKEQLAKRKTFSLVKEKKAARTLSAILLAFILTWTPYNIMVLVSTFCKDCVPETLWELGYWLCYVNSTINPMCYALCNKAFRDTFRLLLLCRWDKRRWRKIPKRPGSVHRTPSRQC
Description: PDSP Primary Binding target: CHRM1 - Compounds are tested at 10 uM concentration, plate are incubated at room temperature in the dark for 90 minutes. Reaction are stopped by vacuum filtration onto 0.3% polyethyleneimine soaked filter mats using Filtermate harvester. Scintilation cocktail is then melted onto microwave-dried filters on a hot plate and the radio activity is counted in Microbia counter.

For assay [2], the target named is Beta-2 adrenergic receptor (Homo sapiens) (UniProt P07550).
Description: PDSP Primary Binding target: ADRB2 - Compounds are tested at 10 uM concentration, plate are incubated at room temperature in the dark for 90 minutes. Reaction are stopped by vacuum filtration onto 0.3% polyethyleneimine soaked filter mats using Filtermate harvester. Scintilation cocktail is then melted onto microwave-dried filters on a hot plate and the radio activity is counted in Microbia counter.
Assay [3] deals with D(2) dopamine receptor (Homo sapiens) (UniProt P14416).
Chain of D(2) dopamine receptor (Homo sapiens) (P14416 whole entry): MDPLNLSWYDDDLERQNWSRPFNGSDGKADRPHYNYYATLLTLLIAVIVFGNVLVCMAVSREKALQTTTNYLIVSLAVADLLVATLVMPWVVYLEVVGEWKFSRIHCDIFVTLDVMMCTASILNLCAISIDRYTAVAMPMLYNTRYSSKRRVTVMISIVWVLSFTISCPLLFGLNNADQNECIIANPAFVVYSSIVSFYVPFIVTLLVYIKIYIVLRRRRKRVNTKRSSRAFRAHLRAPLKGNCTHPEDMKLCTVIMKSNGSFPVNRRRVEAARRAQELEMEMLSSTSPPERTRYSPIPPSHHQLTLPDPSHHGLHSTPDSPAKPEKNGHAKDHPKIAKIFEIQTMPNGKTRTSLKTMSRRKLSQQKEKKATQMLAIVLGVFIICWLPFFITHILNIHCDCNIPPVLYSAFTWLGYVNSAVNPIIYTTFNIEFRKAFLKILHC
Description: PDSP Primary Binding target: DRD2 - Compounds are tested at 10 uM concentration, plate are incubated at room temperature in the dark for 90 minutes. Reaction are stopped by vacuum filtration onto 0.3% polyethyleneimine soaked filter mats using Filtermate harvester. Scintilation cocktail is then melted onto microwave-dried filters on a hot plate and the radio activity is counted in Microbia counter.
The target in assay [4] is Mu-type opioid receptor (Homo sapiens) (UniProt P35372).
Chain of Mu-type opioid receptor (Homo sapiens) (P35372 whole entry): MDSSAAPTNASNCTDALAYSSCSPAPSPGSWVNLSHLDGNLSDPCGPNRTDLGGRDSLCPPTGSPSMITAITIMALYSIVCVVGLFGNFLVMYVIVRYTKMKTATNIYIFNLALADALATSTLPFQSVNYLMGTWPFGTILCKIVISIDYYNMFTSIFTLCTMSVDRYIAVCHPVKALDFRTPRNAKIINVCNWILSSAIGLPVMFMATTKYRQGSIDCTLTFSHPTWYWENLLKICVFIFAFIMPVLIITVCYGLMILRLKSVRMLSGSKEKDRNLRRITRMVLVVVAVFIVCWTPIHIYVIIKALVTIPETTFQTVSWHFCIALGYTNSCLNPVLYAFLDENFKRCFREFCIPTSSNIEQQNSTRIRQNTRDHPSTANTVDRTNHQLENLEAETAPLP
Description: PDSP Primary Binding target: OPRM1 - Compounds are tested at 10 uM concentration, plate are incubated at room temperature in the dark for 90 minutes. Reaction are stopped by vacuum filtration onto 0.3% polyethyleneimine soaked filter mats using Filtermate harvester. Scintilation cocktail is then melted onto microwave-dried filters on a hot plate and the radio activity is counted in Microbia counter.
Assay [5] has as its target Sodium-dependent dopamine transporter (Homo sapiens) (UniProt Q01959).
Description: PDSP Primary Binding target: SLC6A3 - Compounds are tested at 10 uM concentration, plate are incubated at room temperature in the dark for 90 minutes. Reaction are stopped by vacuum filtration onto 0.3% polyethyleneimine soaked filter mats using Filtermate harvester. Scintilation cocktail is then melted onto microwave-dried filters on a hot plate and the radio activity is counted in Microbia counter.
For assay [6], the target named is T2, Muscarinic acetylcholine receptor M5 (Homo sapiens) (UniProt P08912).
T2 sequence (whole entry): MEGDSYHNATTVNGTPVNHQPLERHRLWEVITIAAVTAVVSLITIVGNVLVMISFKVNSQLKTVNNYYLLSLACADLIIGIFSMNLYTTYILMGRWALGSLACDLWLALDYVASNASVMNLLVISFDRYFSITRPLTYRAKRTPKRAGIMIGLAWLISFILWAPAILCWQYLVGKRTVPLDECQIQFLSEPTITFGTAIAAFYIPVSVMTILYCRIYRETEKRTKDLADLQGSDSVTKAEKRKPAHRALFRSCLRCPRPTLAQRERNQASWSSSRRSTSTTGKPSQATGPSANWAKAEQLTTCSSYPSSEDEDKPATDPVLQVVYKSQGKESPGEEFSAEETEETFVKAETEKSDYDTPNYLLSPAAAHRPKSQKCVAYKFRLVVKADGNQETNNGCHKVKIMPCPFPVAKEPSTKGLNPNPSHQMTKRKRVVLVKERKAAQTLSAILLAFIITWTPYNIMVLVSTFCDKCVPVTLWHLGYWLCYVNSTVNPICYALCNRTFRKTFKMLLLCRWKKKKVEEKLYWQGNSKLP
Description: PDSP Primary Binding target: CHRM5 - Compounds are tested at 10 uM concentration, plate are incubated at room temperature in the dark for 90 minutes. Reaction are stopped by vacuum filtration onto 0.3% polyethyleneimine soaked filter mats using Filtermate harvester. Scintilation cocktail is then melted onto microwave-dried filters on a hot plate and the radio activity is counted in Microbia counter.

Assay [7] has as its target Sigma intracellular receptor 2 (Homo sapiens) (UniProt Q5BJF2).
Description: PDSP Primary Binding target: TMEM97 - Compounds are tested at 10 uM concentration, plate are incubated at room temperature in the dark for 90 minutes. Reaction are stopped by vacuum filtration onto 0.3% polyethyleneimine soaked filter mats using Filtermate harvester. Scintilation cocktail is then melted onto microwave-dried filters on a hot plate and the radio activity is counted in Microbia counter.
Assay [8] addresses Kappa-type opioid receptor (Homo sapiens) (UniProt P41145).
Description: PDSP Primary Binding target: OPRK1 - Compounds are tested at 10 uM concentration, plate are incubated at room temperature in the dark for 90 minutes. Reaction are stopped by vacuum filtration onto 0.3% polyethyleneimine soaked filter mats using Filtermate harvester. Scintilation cocktail is then melted onto microwave-dried filters on a hot plate and the radio activity is counted in Microbia counter.
Assay [9] has as its target Beta-3 adrenergic receptor (Homo sapiens) (UniProt P13945).
Description: PDSP Primary Binding target: ADRB3 - Compounds are tested at 10 uM concentration, plate are incubated at room temperature in the dark for 90 minutes. Reaction are stopped by vacuum filtration onto 0.3% polyethyleneimine soaked filter mats using Filtermate harvester. Scintilation cocktail is then melted onto microwave-dried filters on a hot plate and the radio activity is counted in Microbia counter.
The target in assay [10] is 5-hydroxytryptamine receptor 2B (Homo sapiens) (UniProt P41595).
Description: PDSP Primary Binding target: HTR2B - Compounds are tested at 10 uM concentration, plate are incubated at room temperature in the dark for 90 minutes. Reaction are stopped by vacuum filtration onto 0.3% polyethyleneimine soaked filter mats using Filtermate harvester. Scintilation cocktail is then melted onto microwave-dried filters on a hot plate and the radio activity is counted in Microbia counter.
The target in assay [11] is 5-hydroxytryptamine receptor 2A (Homo sapiens) (UniProt P28223).
Chain of 5-hydroxytryptamine receptor 2A (Homo sapiens) (P28223 whole entry): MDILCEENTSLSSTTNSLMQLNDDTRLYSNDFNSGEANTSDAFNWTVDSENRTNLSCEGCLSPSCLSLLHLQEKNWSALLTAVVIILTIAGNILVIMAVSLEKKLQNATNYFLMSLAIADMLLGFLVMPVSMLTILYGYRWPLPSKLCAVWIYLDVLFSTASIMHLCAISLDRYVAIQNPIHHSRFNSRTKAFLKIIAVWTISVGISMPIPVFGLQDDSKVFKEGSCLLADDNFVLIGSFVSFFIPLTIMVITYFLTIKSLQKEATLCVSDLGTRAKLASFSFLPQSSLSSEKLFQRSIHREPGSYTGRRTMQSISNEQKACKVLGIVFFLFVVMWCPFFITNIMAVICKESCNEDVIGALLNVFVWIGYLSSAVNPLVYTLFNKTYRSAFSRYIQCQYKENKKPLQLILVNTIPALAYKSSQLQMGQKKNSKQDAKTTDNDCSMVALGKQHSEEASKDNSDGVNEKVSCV
Description: PDSP Primary Binding target: HTR2A - Compounds are tested at 10 uM concentration, plate are incubated at room temperature in the dark for 90 minutes. Reaction are stopped by vacuum filtration onto 0.3% polyethyleneimine soaked filter mats using Filtermate harvester. Scintilation cocktail is then melted onto microwave-dried filters on a hot plate and the radio activity is counted in Microbia counter.
The target in assay [12] is Sigma non-opioid intracellular receptor 1 (Homo sapiens) (UniProt Q99720).
Description: PDSP Primary Binding target: SIGMAR1 - Compounds are tested at 10 uM concentration, plate are incubated at room temperature in the dark for 90 minutes. Reaction are stopped by vacuum filtration onto 0.3% polyethyleneimine soaked filter mats using Filtermate harvester. Scintilation cocktail is then melted onto microwave-dried filters on a hot plate and the radio activity is counted in Microbia counter.
Assay [13] concerns the target Histamine H2 receptor (Homo sapiens) (UniProt P25021).
Description: PDSP Primary Binding target: HRH2 - Compounds are tested at 10 uM concentration, plate are incubated at room temperature in the dark for 90 minutes. Reaction are stopped by vacuum filtration onto 0.3% polyethyleneimine soaked filter mats using Filtermate harvester. Scintilation cocktail is then melted onto microwave-dried filters on a hot plate and the radio activity is counted in Microbia counter.
Assay [14] concerns the target D(1B) dopamine receptor (Homo sapiens) (UniProt P21918).
Description: PDSP Primary Binding target: DRD5 - Compounds are tested at 10 uM concentration, plate are incubated at room temperature in the dark for 90 minutes. Reaction are stopped by vacuum filtration onto 0.3% polyethyleneimine soaked filter mats using Filtermate harvester. Scintilation cocktail is then melted onto microwave-dried filters on a hot plate and the radio activity is counted in Microbia counter.
The target in assay [15] is T3, Alpha-2B adrenergic receptor (Homo sapiens) (UniProt P18089).
T3 sequence (whole entry): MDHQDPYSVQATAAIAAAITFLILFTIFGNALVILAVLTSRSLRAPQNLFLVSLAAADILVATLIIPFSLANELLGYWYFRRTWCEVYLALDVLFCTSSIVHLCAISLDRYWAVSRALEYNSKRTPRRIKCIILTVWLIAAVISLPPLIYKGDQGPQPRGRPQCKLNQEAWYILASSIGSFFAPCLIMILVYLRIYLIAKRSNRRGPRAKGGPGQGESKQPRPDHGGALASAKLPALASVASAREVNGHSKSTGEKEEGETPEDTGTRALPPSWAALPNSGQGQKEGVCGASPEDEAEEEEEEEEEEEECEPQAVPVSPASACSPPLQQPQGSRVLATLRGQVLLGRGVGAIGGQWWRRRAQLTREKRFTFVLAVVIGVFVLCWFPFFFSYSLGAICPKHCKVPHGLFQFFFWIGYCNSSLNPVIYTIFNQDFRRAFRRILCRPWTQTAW
Description: PDSP Primary Binding target: ADRA2B - Compounds are tested at 10 uM concentration, plate are incubated at room temperature in the dark for 90 minutes. Reaction are stopped by vacuum filtration onto 0.3% polyethyleneimine soaked filter mats using Filtermate harvester. Scintilation cocktail is then melted onto microwave-dried filters on a hot plate and the radio activity is counted in Microbia counter.

For assay [16], the target named is 5-hydroxytryptamine receptor 1B (Homo sapiens) (UniProt P28222).
Chain of 5-hydroxytryptamine receptor 1B (Homo sapiens) (P28222 whole entry): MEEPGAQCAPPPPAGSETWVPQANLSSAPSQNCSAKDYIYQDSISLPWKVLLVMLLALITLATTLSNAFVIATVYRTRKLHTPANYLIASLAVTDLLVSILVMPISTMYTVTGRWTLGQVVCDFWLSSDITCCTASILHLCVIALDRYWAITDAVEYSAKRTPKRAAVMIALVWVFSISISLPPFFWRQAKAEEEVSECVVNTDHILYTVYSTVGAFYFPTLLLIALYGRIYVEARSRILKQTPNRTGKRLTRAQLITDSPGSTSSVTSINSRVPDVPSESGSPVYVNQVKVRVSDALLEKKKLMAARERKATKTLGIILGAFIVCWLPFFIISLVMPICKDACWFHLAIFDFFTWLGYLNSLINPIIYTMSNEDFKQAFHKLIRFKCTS
Description: PDSP Primary Binding target: HTR1B - Compounds are tested at 10 uM concentration, plate are incubated at room temperature in the dark for 90 minutes. Reaction are stopped by vacuum filtration onto 0.3% polyethyleneimine soaked filter mats using Filtermate harvester. Scintilation cocktail is then melted onto microwave-dried filters on a hot plate and the radio activity is counted in Microbia counter.
For assay [17], the target named is T4, 5-hydroxytryptamine receptor 2C (Homo sapiens) (UniProt P28335).
T4 sequence (whole entry): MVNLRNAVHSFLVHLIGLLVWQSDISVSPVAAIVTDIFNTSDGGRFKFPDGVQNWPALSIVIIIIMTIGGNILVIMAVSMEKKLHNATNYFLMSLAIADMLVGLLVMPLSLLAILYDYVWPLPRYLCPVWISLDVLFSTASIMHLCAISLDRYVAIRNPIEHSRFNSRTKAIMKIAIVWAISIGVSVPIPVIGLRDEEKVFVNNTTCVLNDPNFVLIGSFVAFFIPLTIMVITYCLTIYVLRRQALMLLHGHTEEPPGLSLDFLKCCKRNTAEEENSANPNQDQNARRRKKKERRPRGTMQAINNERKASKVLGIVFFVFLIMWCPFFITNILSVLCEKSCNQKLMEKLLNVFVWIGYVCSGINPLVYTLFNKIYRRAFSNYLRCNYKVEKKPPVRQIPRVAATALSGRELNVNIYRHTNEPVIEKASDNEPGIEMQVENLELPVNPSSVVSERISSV
Description: PDSP Primary Binding target: HTR2C - Compounds are tested at 10 uM concentration, plate are incubated at room temperature in the dark for 90 minutes. Reaction are stopped by vacuum filtration onto 0.3% polyethyleneimine soaked filter mats using Filtermate harvester. Scintilation cocktail is then melted onto microwave-dried filters on a hot plate and the radio activity is counted in Microbia counter.

In assay [18] the target is D(1A) dopamine receptor (Homo sapiens) (UniProt P21728).
Chain of D(1A) dopamine receptor (Homo sapiens) (P21728 whole entry): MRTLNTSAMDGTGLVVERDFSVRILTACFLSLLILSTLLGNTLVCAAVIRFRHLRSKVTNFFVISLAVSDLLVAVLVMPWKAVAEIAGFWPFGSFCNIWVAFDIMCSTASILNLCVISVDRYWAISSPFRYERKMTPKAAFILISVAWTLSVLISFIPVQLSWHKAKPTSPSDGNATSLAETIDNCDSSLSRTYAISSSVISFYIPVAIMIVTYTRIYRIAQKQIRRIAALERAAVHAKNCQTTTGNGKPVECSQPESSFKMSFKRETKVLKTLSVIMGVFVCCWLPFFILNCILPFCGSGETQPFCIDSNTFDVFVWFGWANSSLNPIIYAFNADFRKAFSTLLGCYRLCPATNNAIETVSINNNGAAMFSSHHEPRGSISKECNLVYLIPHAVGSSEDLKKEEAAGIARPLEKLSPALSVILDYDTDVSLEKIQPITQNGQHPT
Description: PDSP Primary Binding target: DRD1 - Compounds are tested at 10 uM concentration, plate are incubated at room temperature in the dark for 90 minutes. Reaction are stopped by vacuum filtration onto 0.3% polyethyleneimine soaked filter mats using Filtermate harvester. Scintilation cocktail is then melted onto microwave-dried filters on a hot plate and the radio activity is counted in Microbia counter.
The target of assay [19] is Translocator protein (Homo sapiens) (UniProt P30536).
Chain of Translocator protein (Homo sapiens) (P30536 whole entry): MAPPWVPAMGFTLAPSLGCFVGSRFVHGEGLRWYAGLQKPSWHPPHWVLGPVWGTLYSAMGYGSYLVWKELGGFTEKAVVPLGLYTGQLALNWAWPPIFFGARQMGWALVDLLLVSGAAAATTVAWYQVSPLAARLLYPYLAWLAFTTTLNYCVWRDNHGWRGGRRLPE
Description: PDSP Primary Binding target: TSPO - Compounds are tested at 10 uM concentration, plate are incubated at room temperature in the dark for 90 minutes. Reaction are stopped by vacuum filtration onto 0.3% polyethyleneimine soaked filter mats using Filtermate harvester. Scintilation cocktail is then melted onto microwave-dried filters on a hot plate and the radio activity is counted in Microbia counter.

Chain of Sigma intracellular receptor 2 (Homo sapiens) (Q5BJF2 whole entry): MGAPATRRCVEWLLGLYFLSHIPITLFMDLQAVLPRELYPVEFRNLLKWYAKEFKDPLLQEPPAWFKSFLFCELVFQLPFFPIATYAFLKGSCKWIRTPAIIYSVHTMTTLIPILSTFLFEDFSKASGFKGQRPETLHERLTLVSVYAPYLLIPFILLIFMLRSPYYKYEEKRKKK
Chain of Sodium-dependent dopamine transporter (Homo sapiens) (Q01959 whole entry): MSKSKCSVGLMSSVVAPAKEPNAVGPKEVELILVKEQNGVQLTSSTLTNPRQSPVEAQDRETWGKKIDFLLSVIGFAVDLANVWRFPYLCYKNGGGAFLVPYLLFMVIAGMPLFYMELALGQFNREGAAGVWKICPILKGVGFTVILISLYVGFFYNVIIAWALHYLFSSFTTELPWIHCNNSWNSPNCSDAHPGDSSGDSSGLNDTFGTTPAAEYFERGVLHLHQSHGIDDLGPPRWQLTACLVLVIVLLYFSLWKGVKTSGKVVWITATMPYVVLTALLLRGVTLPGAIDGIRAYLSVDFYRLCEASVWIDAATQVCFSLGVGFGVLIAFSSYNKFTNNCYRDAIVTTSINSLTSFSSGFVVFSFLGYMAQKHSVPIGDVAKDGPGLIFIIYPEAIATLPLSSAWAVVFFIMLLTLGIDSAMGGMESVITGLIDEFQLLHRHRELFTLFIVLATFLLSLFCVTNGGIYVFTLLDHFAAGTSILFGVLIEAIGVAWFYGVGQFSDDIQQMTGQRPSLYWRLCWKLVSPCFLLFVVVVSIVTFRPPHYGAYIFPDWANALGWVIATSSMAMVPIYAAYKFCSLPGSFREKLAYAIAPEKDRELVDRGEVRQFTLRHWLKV
Chain of Kappa-type opioid receptor (Homo sapiens) (P41145 whole entry): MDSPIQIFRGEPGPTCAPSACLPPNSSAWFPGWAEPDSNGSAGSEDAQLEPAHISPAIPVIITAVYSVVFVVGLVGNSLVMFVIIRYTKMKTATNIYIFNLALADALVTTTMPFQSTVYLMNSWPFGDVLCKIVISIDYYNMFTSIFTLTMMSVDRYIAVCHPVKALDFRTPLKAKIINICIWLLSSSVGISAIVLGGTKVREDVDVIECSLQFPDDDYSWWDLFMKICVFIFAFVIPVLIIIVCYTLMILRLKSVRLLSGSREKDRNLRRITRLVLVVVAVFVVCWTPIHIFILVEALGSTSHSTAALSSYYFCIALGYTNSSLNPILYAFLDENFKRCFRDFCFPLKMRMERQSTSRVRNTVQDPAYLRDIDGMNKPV
Chain of Beta-3 adrenergic receptor (Homo sapiens) (P13945 whole entry, looked up): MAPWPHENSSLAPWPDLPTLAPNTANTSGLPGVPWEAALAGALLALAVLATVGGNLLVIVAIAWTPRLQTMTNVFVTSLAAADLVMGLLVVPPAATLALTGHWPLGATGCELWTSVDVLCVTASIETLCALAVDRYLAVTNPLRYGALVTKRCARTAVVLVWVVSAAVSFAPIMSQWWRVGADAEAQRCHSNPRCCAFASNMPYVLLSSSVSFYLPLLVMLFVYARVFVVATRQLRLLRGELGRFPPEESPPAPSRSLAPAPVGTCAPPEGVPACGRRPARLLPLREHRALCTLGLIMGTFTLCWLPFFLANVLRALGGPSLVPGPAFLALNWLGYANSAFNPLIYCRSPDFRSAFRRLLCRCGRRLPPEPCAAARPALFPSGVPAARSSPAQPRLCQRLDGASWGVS
Chain of Histamine H2 receptor (Homo sapiens) (P25021 whole entry): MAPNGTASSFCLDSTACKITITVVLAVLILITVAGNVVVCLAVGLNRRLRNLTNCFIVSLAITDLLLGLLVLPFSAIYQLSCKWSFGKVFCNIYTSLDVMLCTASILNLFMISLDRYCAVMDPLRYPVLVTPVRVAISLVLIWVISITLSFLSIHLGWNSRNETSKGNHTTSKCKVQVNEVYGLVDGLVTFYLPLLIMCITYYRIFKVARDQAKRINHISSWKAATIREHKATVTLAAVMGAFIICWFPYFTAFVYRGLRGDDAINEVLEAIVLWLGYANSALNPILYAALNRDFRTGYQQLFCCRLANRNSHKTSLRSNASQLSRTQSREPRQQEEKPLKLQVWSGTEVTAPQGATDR
Chain of D(1B) dopamine receptor (Homo sapiens) (P21918 whole entry): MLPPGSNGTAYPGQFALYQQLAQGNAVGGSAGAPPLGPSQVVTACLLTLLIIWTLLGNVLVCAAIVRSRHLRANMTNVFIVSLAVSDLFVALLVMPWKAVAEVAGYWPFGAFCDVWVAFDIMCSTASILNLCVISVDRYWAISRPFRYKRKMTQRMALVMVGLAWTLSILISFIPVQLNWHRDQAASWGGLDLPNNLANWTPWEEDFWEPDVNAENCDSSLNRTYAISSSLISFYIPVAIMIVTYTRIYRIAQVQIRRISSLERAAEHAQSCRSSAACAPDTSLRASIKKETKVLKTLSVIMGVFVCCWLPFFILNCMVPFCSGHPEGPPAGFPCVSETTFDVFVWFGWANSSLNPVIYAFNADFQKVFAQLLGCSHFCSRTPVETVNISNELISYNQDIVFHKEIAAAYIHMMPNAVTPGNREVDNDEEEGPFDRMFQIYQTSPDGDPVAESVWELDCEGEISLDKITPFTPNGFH

In general, inhibition refers to the relative decrease from the control value, in per cent. For `C[C@H](NC[C@H](O)CP(=O)(O)CC1CCCCC1)c1ccc(Cl)c(Cl)c1`, the inhibition in assay [1] is 8.07%; in assay [2], -1.65%; in assay [3], 10.4%; in assay [4], 60.4%; in assay [5] it was 62.1%; in assay [6] it was 16.6%. Besides, the inhibition in assay [7] is 26.7%; in [8] it was 52.3%; in [9], 38.3%; in assay [10], 0.95%; in assay [11] it was -0.59%; in assay [12] it was 49.6%. Besides, the inhibition in [13] was 26%.
In the case of `N#Cc1cccc(C(=O)Nc2cc(-c3ccccc3)nn2-c2ccccc2)c1`, the inhibition in assay [1] is 3.6%; in assay [2] it was 1.08%; in assay [14], 0.95%; in [3] it was -0.08%; in assay [15], 0.47%; in [4], 6.88%. Also, the inhibition in assay [5] was 2.12%; in assay [16], 23.3%; in assay [6] it was 2.45%; in assay [7], -8.91%; in assay [8] it was 16.2%; in assay [9], -5.54%. In addition, the inhibition in assay [10] is 2.3%; in assay [17] it was 7.87%; in assay [11], 6.53%; in assay [12], 8.95%; in assay [13], 33%.
`Cc1cc(C(=O)N2Cc3cnn(C)c3Nc3ccccc32)ccc1CNC(=O)N1CCC[C@H]1C(=S)N1CCCN(C)CC1`: the inhibition is 49.6% in assay [1]; -1.47% in assay [2]; 11% in assay [14]; 5.64% in [3]; 2.87% in [15]; 12.3% in [4]. Further, the inhibition in assay [5] is 19.8%; in assay [16], 20.7%; in assay [6], 83.3%; in [18], -3.37%; in assay [7], -1.48%; in assay [8], 61.7%. In addition, the inhibition in [9] is -2.29%; in assay [10], 18.3%; in assay [17], -8.65%; in [19] it was -9.04%; in assay [11] it was 9.68%; in [12], -7.44%. Besides, the inhibition in assay [13] is 46.9%.
Turning to `COc1ccc(S(=O)(=O)c2cc(OC)ccc2S(=O)(=O)c2ccc([C@H](C)NS(C)(=O)=O)cc2)cc1`, the inhibition in assay [1] is -2.24%; in [2], -1.6%; in assay [14] it was 14.2%; in assay [3], 1.18%; in [15] it was 0.09%; in assay [4] it was 11.3%. Moreover, the inhibition in assay [5] was 18.8%; in [16], -1.73%; in assay [6] it was -5.9%; in assay [18], 0.39%; in assay [7] it was 32.1%; in assay [8] it was 2.71%. The inhibition in assay [9] was 1.41%; in [10], 23.7%; in [17], 18.7%; in assay [19] it was 25.6%; in [11], 31.9%; in [12] it was 23.1%. For the same compound, the inhibition in assay [13] was 15.6%.
For `CCc1cc2c(c(CC)n1)CCC(=O)N2Cc1ccc(-c2ccccc2-c2nnn[nH]2)cc1`, the inhibition in assay [1] was 1.99%; in assay [2] it was -4.26%; in assay [3], 37.9%; in [15], 3.95%; in assay [4], 51.6%; in assay [5], 8.77%. The inhibition in assay [16] was 11.5%; in [6] it was -1.14%; in assay [18], -4.14%; in [7], 8.89%; in assay [8] it was 3.59%; in [9] it was 9.68%. For the same compound, the inhibition is 10.5% in [10]; 45.9% in assay [19]; 29.2% in [11]; 24.9% in assay [12]; 26.1% in assay [13].
Turning to `Cc1nc(C(=O)N2CCC[C@H]2Cc2nnc(-c3ccccc3)o2)c(-c2ccccc2F)s1`, the inhibition was -9.02% in assay [1]; -2.08% in assay [2]; 14.6% in assay [3]; 7.98% in assay [4]; 26.1% in [5]; 29.8% in assay [6]. Moreover, the inhibition in [18] was 7.87%; in assay [7], 12.9%; in [8] it was 57.7%; in [9], 23.9%; in assay [10] it was 92.6%; in assay [17], 4.37%. The inhibition in assay [19] is 57.6%; in assay [11] it was 8.26%; in assay [12], 35.9%; in assay [13], -4.23%.
Consider `O=C(Cc1ccccc1)Nc1nc2ccc(Cl)cc2c2nc(-c3ccco3)nn12`, for which the inhibition in [1] was 5.61%; in [2], 2.33%; in assay [3], 1.93%; in [15], 4.67%; in [4], 17.8%; in [5], 27.1%. The inhibition in [6] was -3.93%; in assay [7], -6.83%; in assay [8], 12.4%; in [9], -9.26%; in [10], -0.19%; in assay [17] it was -5.69%. Also, the inhibition in assay [19] was 18.7%; in [11], 16.8%; in assay [12] it was -4.19%; in assay [13] it was 13.8%.
As for `CC(C)NCC(O)c1ccc(N)c(C#N)c1` (stereo not given), the inhibition in [1] is -2.53%; in [2], 95.5%; in [3], 1.95%; in assay [5], 29%; in assay [6], -0.9%; in assay [18], -2.82%. For the same compound, the inhibition in assay [7] was 29.6%; in assay [8] it was 9.69%; in [9], 59.9%; in [17], -7.04%; in assay [11] it was 9.46%; in [12] it was 22.7%. For the same compound, in assay [13], the inhibition was 5.77%.

These data come from ChEMBL document CHEMBL5442219.
